Measurements taken from patent US8765803B1, “Rab7 GTPase inhibitors and related methods of treatment” (STC.UNM, priority 2011, dated 2014).
≈ marks a conversion by molar mass, not a printed value. Where “and” joins values, the source holds several entries; their conditions need not be identical. Identical values can stand only once. Like-named read-outs stand apart in the source and are kept apart here.

Key:
[1] = molecular target: T1, Rab7 GTPase (UniProt P18067); assay: Multiplex bead-based flow cytometry dose-response, BODIPY-FL-GTP binding to GST-tagged GTPase; conditions: for EC50: mean of n replicates; for % Res: percent response
T1 construct: fused on or other part: GST tag, used to hold the protein on glutathione beads

[2] = system: U937 cells; assay: Cytotoxicity of compounds, cell density and viability; assay type: cell-based; conditions: 24 h
Method: U937 cells were grown to a density of 0.4×10^6 cells/mL Compounds were added to a final concentration of 20 μM or otherwise indicated. As a control, cells were treated with DMSO of the same volume. After 24 h incubation, the density and viability of the cells were measured with Countess Cell Counter according to the protocols from the manufacturer.

[3] = Solubility in PBS and assay media, UV absorbance detection; assay type: physicochemical
Method: Solubility was measured in phosphate buffered saline (PBS) at room temperature (23° C.). PBS by definition is 137 mM NaCl, 2.7 mM KCl, 10 mM sodium phosphate dibasic, 2 mM potassium phosphate monobasic and a pH of 7.4. Detection was based on UV absorbance. […]. Solubility was also assessed in the each of the four media used in the individual assays. […]

[4] = system: Ras-related GTPases (Cdc42 wt, Rac1wt, Rac1Q61L, Rab2 wt, Rab7 wt, and H-Ras wt); conditions: for Activity for all GTPases tested: multiplex GTPase screen; for Loss in potency across GTPases relative to CID1067700: compared across multiple/all GTPases
Method: The eight GTPases were grouped into two sets: Rab7, H-Ras wild type and its V12 mutant, and Cdc42 and its L61 mutant were assayed in a buffer containing 1 mM EDTA, while Rho, Rac1 and its L61 mutant, and Cdc42 and its L61 mutant were assayed in the same buffer but instead containing 1 mM Mg^2+ with Cdc42 and its mutant being tested in both buffers. Besides 1 mM EDTA or 1 mM Mg^2+, the buffer contained 30 mM HEPES, pH 7.5, 40 mM KCl, 100 mM NaCl, 0.1% (v/v) NP-40 and 1% BSA. For each multiplex reaction, an extra set of beads was included to serve as scavengers to bind any proteins that dissociate from their assigned bead set and thereby reduce interference due to protein dissociation during the assay. […] Briefly, each individual GST-tagged enzyme was incubated with 4 μm glutathione-coated microsphere beads overnight with gentle rotation. The microsphere beads have different red fluorescence dyes incorporated and therefore could be separated by a flow cytometer. The unbound enzyme was removed by sufficient washing with the buffer. The bead sets were then combined and dispensed to 384-well plates at 5 μL/well. For one plate, 0.5 μg each of the enzymes and 4.0×10^4 of each bead were used. Then 100 nL compound was added using Biomek FX followed by the addition of 5 μL/well of BODIPY-FL-GTP (ribose-linked BODIPY). […] The beads were aspirated and delivered with the HyperCyt® instrument and read on CyAnADP flow cytometer. Forward scatter and side scatter was used to define the whole bead population. […] The data was analyzed by the HyperView® software developed by Dr. Bruce Edward at the University of New Mexico.
Briefly, six sets of beads (each with a unique red fluorescence intensity) were individually coated with six representative GST-tagged Ras-related GTPases (Cdc42 wt, Rac1wt, Rac1Q61L, Rab2 wt, Rab7 wt, and H-Ras wt) (FIG. 29A). The individually conjugated beads were then assayed in the presence of individual compounds in the Molecular Libraries Small Molecule Repository using a HyperCyt flow cytometry to identify molecules that altered the binding of fluorescent nucleotide to Ras-family GTPases (36).

[5] = molecular target: Rab7 wt; conditions: previously determined (ref 33); read-out: Equilibrium dissociation constant Kd for wild-type Rab7; cited from earlier work
[6] = Assay format EDTA (1 mM EDTA buffer, 100 nM BODIPY-FL-GTP)
[7] = Assay format Mg (1 mM Mg2+ buffer, 1 nM BODIPY-FL-GTP)
[8] = 23 °C, pH 7.4, aqueous buffer, Solubility
[9] = pH 7.5, aqueous with cosolvent or surfactant or cyclodextrin, Solubility

Row | EC50 [1, 6] [nM] | % Res ([1]; Assay format EDTA) [%] | EC50 [1, 7] [nM] | % Res ([1]; Assay format Mg) [%] | Molecule | further results
1 | 810 | 89 | 460 | 39 | CC1(C)Cc2c(sc(NC(=S)NC(=O)C3CCCCC3)c2C(=O)O)CO1 [CID53377396] | –
2 | 410 | 95 | 520 | 47 | Cc1ccccc1C(=O)NC(=S)Nc1sc2c(c1C(=O)O)CC(C)(C)OC2 [CID53377404] | –
3 | 74 | 105 | 82 | 63 | CC1(C)Cc2c(sc(NC(=S)NC(=O)c3ccco3)c2C(=O)O)CO1 [CID53377402] | –
4 | 37 | 109 | 35 | 43 | CCC1(C)Cc2c(sc(NC(=S)NC(=O)c3ccccc3)c2C(=O)O)CO1 (stereo not shown) [CID53377401] | –
5 | 35 | 72 | 33 | 56 | O=C(NC(=S)Nc1sc2c(c1C(=O)O)CC1(CCCC1)OC2)c1ccccc1 [CID53377403] | –
6 | 470 | 18 | 220 | 47 | CC(C)(C)C1Cc2c(sc(NC(=S)NC(=O)c3ccccc3)c2C(=O)O)CO1 (stereo not shown) [CID53377399] | –
7 | 66 ± 20 | 97 ± 5 | 63 ± 10 | 53 ± 1 | CC1(C)CCc2sc(NC(=S)NC(=O)c3ccccc3)c(C(=O)O)c2C1 [CID53301937] | Cell viability of U937 cells after treatment ([2]; 20 μM): 91%
8 | 1120 | 52 | – | – | COc1ccccc1C(=O)NC(=S)Nc1sc2c(c1C(=O)O)CC(C)(C)OC2 [CID53377397] | –
9 | 25 | 103 | 25 | 56 | CC1(C)Cc2c(sc(NC(=S)NC(=O)c3cccs3)c2C(=O)O)CO1 [CID53377398] | –
10 | 1160 | 93 | 360 | 30 | Cc1cccc(C(=O)NC(=S)Nc2sc3c(c2C(=O)O)CC(C)(C)OC3)c1 [CID53377400] | –
11 | 95 | 100 | 77 | 39 | CC1(C)Cc2c(sc(NC(=S)NC(=O)c3ccc(F)cc3)c2C(=O)O)CO1 [CID53377405, 2-(3-(4-Fluorobenzoyl)thioureido)-5,5-dimethyl-5,7-dihydro-4H-thieno[2,3-c]pyran-3-carboxylic acid] | solubility [3]: 67.6 μg/mL,; solubility [3, 8]: 85.7 µg/mL and 210 µM; solubility ([3]; pH 7.5): 69.1 μg/mL,; solubility [3, 9]: 98.2 µg/mL and 240 µM; solubility ([3]; pH 7.5, read-out: Solubility): 169.2 µM (≈ 69.1 µg/mL); solubility ([3]; read-out: Solubility): 165.5 µM (≈ 67.6 µg/mL); Cell viability of U937 cells after treatment ([2]; 20 μM): 94%
12 | 140 | 102 | 97 | 40 | Cc1ccc(C(=O)NC(=S)Nc2sc3c(c2C(=O)O)CC(C)(C)OC3)cc1 [CID53377395] | –

Continued, molecule first:

Row | Molecule | EC50 [1, 6] [nM] | % Res ([1]; Assay format EDTA) [%] | EC50 [1, 7] [nM] | % Res ([1]; Assay format Mg) [%] | further results
13 | CC1Cc2c(sc(NC(=S)NC(=O)c3ccccc3)c2C(=O)O)CO1 (stereo not shown) [CID46916263, 2-(3-benzoylthioureido)-5-methyl-5,7-dihydro-4H-thieno[2,3-c]pyran-3-carboxylic acid] | – | – | – | – | Cell viability of U937 cells after treatment ([2]; 100 μM): 94% (100 μM)
14 | CC1(C)Cc2c(sc(NC(=S)NC(=O)c3cccc(Br)c3)c2C(=O)O)CO1 [CID53301936] | 2510 ± 2100 | 41 ± 0 | > 100000 | – | –
15 | CC1(C)Cc2c(sc(NC(=S)NC(=O)c3ccccc3Br)c2C(=O)O)CO1 [CID53301931, 2-(3-(2-Bromobenzoyl)thioureido)-5,5-dimethyl-5,7-dihydro-4H-thieno[2,3-c]pyran-3-carboxylic acid] | 430 ± 680 | 86 ± 10 | 650 ± 870 | 35 ± 4 | solubility [3]: >93 μg/mL,; solubility [3, 8]: > 93 µg/mL and > 198 µM; solubility ([3]; pH 7.5): >93 μg/mL,; solubility ([3]; pH 7.5, read-out: Solubility): >198 µM; solubility ([3]; read-out: Solubility): >198 µM; Cell viability of U937 cells after treatment ([2]; 20 μM): 94%
16 | COc1cccc(C(=O)NC(=S)Nc2sc3c(c2C(=O)O)CC(C)(C)OC3)c1 [CID53301934, 2-(3-(3-Methoxybenzoyl)thioureido)-5,5-dimethyl-5,7-dihydro-4H-thieno[2,3-c]pyran-3-carboxylic acid] | 150 ± 130 | 68 ± 25 | 320 | 37 | solubility [3]: 54.5 μg/mL,; solubility [3, 8]: 36.5 µg/mL and 86.8 µM; solubility ([3]; pH 7.5): 29.7 μg/mL,; solubility [3, 9]: 33.8 µg/mL and 80.4 µM; solubility ([3]; pH 7.5, read-out: Solubility): 70.6 µM (≈ 29.7 µg/mL); solubility ([3]; read-out: Solubility): 129.6 µM (≈ 54.5 µg/mL); Cell viability of U937 cells after treatment ([2]; 20 μM): 94%
17 | CC1(C)Cc2c(sc(NC(=S)NC(=O)c3ccc(Br)cc3)c2C(=O)O)CO1 [CID53301933] | 300 ± 180 | 93 ± 6 | 270 ± 220 | 41 ± 6 | Cell viability of U937 cells after treatment ([2]; 20 μM): 93%
18 | COC(=O)c1c(NC(=S)NC(=O)c2ccccc2)sc2c1CC(C)(C)OC2 [CID1251121, Methyl 2-(3-benzoylthioureido)-5,5-dimethyl-5,7-dihydro-4H-thieno[2,3-c]pyran-3-carboxylate] | – | – | – | – | Activity for all GTPases tested [4]: complete loss of activity
19 | BODIPY FL GDP 2′-(or -3′)-O—[N-(2-aminoethyl)urethane] [BODIPY-GDP] | – | – | – | – | Kd [5]: 40 nM
20 | COc1ccc(C(=O)NC(=S)Nc2sc3c(c2C(=O)O)CC(C)(C)OC3)cc1 [CID53301932, 2-(3-(4-Methoxybenzoyl)thioureido)-5,5-dimethyl-5,7-dihydro-4H-thieno[2,3-c]pyran-3-carboxylic acid] | 140 ± 70 | 94 ± 14 | 140 ± 110 | 54 ± 2 | Cell viability of U937 cells after treatment ([2]; 20 μM): 96%
21 | CC1(C)Cc2c(sc(NC(=S)Nc3ccccc3)c2C(=O)O)CO1 [CID1280844, 5,5-dimethyl-2-(3-phenylthioureido)-5,7-dihydro-4H-thieno[2,3-c]pyran-3-carboxylic acid] | – | – | – | – | Activity for all GTPases tested [4]: inactive
22 | CC1(C)Cc2c(sc(NC(=S)NC(=O)c3ccccc3F)c2C(=O)O)CO1 [CID53301935, 2-(3-(2-fluorobenzoyl)thioureido)-5,5-dimethyl-5,7-dihydro-4H-thieno[2,3-c]pyran-3-carboxylic acid] | 140 ± 160 | 97 ± 15 | 170 ± 210 | 45 ± 2 | Cell viability of U937 cells after treatment ([2]; 20 μM): 96%
23 | CC1(C)Cc2c(sc(NC(=O)Cc3ccccc3)c2C(=O)O)CO1 [CID740871, 5,5-dimethyl-2-(2-phenylacetamido)-5,7-dihydro-4H-thieno[2,3-c]pyran-3-carboxylic acid] | – | – | – | – | Activity for all GTPases tested [4]: complete loss of activity; Activity for all GTPases tested ([4]; listed as SID 9938117): inactive
24 | O=C(NC(=S)Nc1sc2c(c1C(=O)O)CCOC2)c1ccccc1 [CID46916266, 2-(3-benzoylthioureido)-5,7-dihydro-4H-thieno[2,3-c]pyran-3-carboxylic acid] | – | – | – | – | Cell viability of U937 cells after treatment ([2]; 100 μM): 92% (100 μM)
25 | BODIPY FL GTP 2′-(or 3′)-O—[N-(2-aminoethyl)urethane] [BODIPY-GTP] | – | – | – | – | Kd [5]: 100 nM
26 | CC1(C)Cc2c(sc(NC(=S)NC(=O)c3cccc(F)c3)c2C(=O)O)CO1 [CID53301930] | 320 ± 90 | 90 ± 6 | 290 ± 190 | 39 ± 3 | Cell viability of U937 cells after treatment ([2]; 20 μM): 92%
27 | CC1(C)Cc2c(sc(NC(=O)NC(=O)c3ccccc3)c2C(=O)O)CO1 [CID46916265, 2-(3-Benzoylureido)-5,5-dimethyl-5,7-dihydro-4H-thieno[2,3-c]pyran-3-carboxylic acid] | – | – | – | – | Cell viability of U937 cells after treatment ([2]; 100 μM): 98% (100 μM); Loss in potency across GTPases relative to CID1067700 [4]: 35 fold; Loss in potency across GTPases relative to CID1067700 ([4]; listed as SID 99381130): 7 fold
